Assay results published in patent publication US8871179B2, “Method for monitoring blood flow and metabolic uptake in tissue with radiolabeled alkanoic acid” (The General Hospital Corporation, priority 2003, dated 2014).
Blank lines part the entries; values can stand above or below the compound they belong to.

What was measured:
[1] = in vivo; cited from earlier work
[2] = Biodistribution of isomers and racemic mixture of labeled 3-methylheptadecanoic acid in rats; assay type: in vivo; conditions: rat
Protocol: The following data compare the biodistribution of 1-[^11C]-3(S)-methylheptadecanoic acid (the ‘S’ isomer) and I-[^11C]-3(R)-methylheptadecanoic acid (the ‘R’ isomer). Also compared is the racemic mixture, 1-[^14C]-3(R,S)-methylheptadecanoic acid, labeled with ^14C. […] Biodistribution was performed in six rats for each compound and time point. The 5-minute distribution data are contained in Table 5, while the 30-minute data are contained in Table 6. These unexpected results imply that during β-oxidation, enoyl-CoA hydratase is stereo-specific and only recognizes the ‘S’ isomer. Further, stereoisomeric purity is important for targeting the MFA to heart tissue.

[3] = cited from earlier work
[4] = Biodistribution of [^18F]-FCPHA in rats (organs excised, gamma counter); assay type: in vivo, Sprague-Dawley rats
[5] = Heart imaging in pig after intravenous [^18F]FCPHA; assay type: in vivo
Protocol: (§1) In FIG. 6, the images are a comparison of [^13N]ammonia (right) and [^18F]FCPHA (left) at 2-8 minutes in a pig.
(§2) The biodistribution of [^18F]-FCPHA was also studied in monkeys.

[6] = Biodistribution of [^18F]-FCPHA in rats (organs excised, gamma counter); assay type: in vivo, Sprague-Dawley rats; conditions: rat
Protocol: Male Sprague-Dawley rats weighing approximately 300-350 grams, were injected without anesthesia with 40 µCi of [^18F]-FCPHA in a total volume of 200 µl. The radiolabeled FA was injected into the tail vein and the rats subsequently sacrificed at 5 minutes and 60 minutes post-injection. The organs were excised and counted in a gamma counter. Accumulation of the FA in various organs in % DPG (dose per gram) is detailed in Table 1.
Bone accumulation of the fluorinated FA measured de-fluorination of the compound and its subsequent accumulation. To confirm imaging resolution, the following ratios were determined at 5 and 60 minutes post-injection (Table 2).

[7] = PET heart imaging in monkey after intravenous [^18F]-FCPHA; assay type: in vivo
Protocol: as §1, §2

[8] = normal myocardium, biexponential clearance

Biodistribution, Blood ([2]; 5 minutes post-injection): 0.30 ± 0.04 % DPE | Biodistribution, Heart ([2]; 5 minutes post-injection): 1.40 ± 0.23 % DPE | Biodistribution, Left Ventricle ([2]; 5 minutes post-injection): 1.50 ± 0.50 % DPE | Biodistribution, Right Ventricle ([2]; 5 minutes post-injection): 0.94 ± 0.46 % DPE | Heart-to-blood ([2]; 5 minutes post-injection): 4.66 | Left ventricle-to-blood ([2]; 5 minutes post-injection): 5.00 | Right ventricle-to-blood ([2]; 5 minutes post-injection): 3.13 | Biodistribution, Blood ([2]; 30 minutes post-injection): 0.23 ± 0.03 % DPE | Biodistribution, Heart ([2]; 30 minutes post-injection): 1.07 ± 0.16 % DPE | Biodistribution, Left Ventricle ([2]; 30 minutes post-injection): 1.33 ± 0.25 % DPE | Biodistribution, Right Ventricle ([2]; 30 minutes post-injection): 0.93 ± 0.35 % DPE | Heart-to-blood ([2]; 30 minutes post-injection): 5.95 | Left ventricle-to-blood ([2]; 30 minutes post-injection): 5.78 | Right ventricle-to-blood ([2]; 30 minutes post-injection): 4.00
Compound: CCCCCCCCCCCCCC[C@@H](C)C[11C](=O)O (single isomer, unassigned; isomer i) [R-isomer]

Subcellular distribution in the rat heart [4]: found in the mitochondria | Myocardial activity retention in late images ([5]; late images at 60 minutes): high myocardial activity retention | Blood activity clearance ([5]; pig): fast clearance | Accumulation in Adrenal ([6]; 5 min post-injection): 0.22 ± 0.061 % DPG | Accumulation in Blood ([6]; 5 min post-injection): 0.064 ± 0.008 % DPG | Accumulation in Bone ([6]; 5 min post-injection): 0.16 ± 0.03 % DPG | Accumulation in Brain ([6]; 5 min post-injection): 0.06 ± 0.01 % DPG | Accumulation in Gastrointestinal Tract ([6]; 5 min post-injection): 0.19 ± 0.040 % DPG | Accumulation in Kidney ([6]; 5 min post-injection): 0.41 ± 0.097 % DPG | Accumulation in Liver ([6]; 5 min post-injection): 1.34 ± 0.26 % DPG | Accumulation in Lung ([6]; 5 min post-injection): 0.47 ± 0.12 % DPG | Accumulation in Muscle ([6]; 5 min post-injection): 0.25 ± 0.009 % DPG | Accumulation in Spleen ([6]; 5 min post-injection): 0.55 ± 0.30 % DPG | Accumulation in Stomach ([6]; 5 min post-injection): 0.12 ± 0.067 % DPG | Accumulation in Testes ([6]; 5 min post-injection): 0.020 ± 0.003 % DPG | Accumulation in Heart ([6]; 5 min post-injection, tail vein): 1.55 ± 0.66 % DPG | Accumulation in Adrenal ([6]; 60 min post-injection): 0.30 ± 0.16 5 DPG | Accumulation in Blood ([6]; 60 min post-injection): 0.080 ± 0.019 5 DPG | Accumulation in Bone ([6]; 60 min post-injection): 0.70 ± 0.39 5 DPG | Accumulation in Brain ([6]; 60 min post-injection): 0.05 ± 0.02 5 DPG | Accumulation in Gastrointestinal Tract ([6]; 60 min post-injection): 0.24 ± 0.039 5 DPG | Accumulation in Heart ([6]; 60 min post-injection): 1.43 ± 0.14 5 DPG | Accumulation in Kidney ([6]; 60 min post-injection): 0.34 ± 0.08 5 DPG | Accumulation in Liver ([6]; 60 min post-injection): 0.87 ± 0.15 5 DPG | Accumulation in Lung ([6]; 60 min post-injection): 0.33 ± 0.16 5 DPG | Accumulation in Muscle ([6]; 60 min post-injection): 0.097 ± 0.075 5 DPG | Accumulation in Spleen ([6]; 60 min post-injection): 0.34 ± 0.085 5 DPG | Accumulation in Stomach ([6]; 60 min post-injection): 0.15 ± 0.038 5 DPG | Accumulation in Testes ([6]; 60 min post-injection): 0.011 ± 0.004 5 DPG | Heart-to-blood ratio ([6]; at 5 minutes post-injection): 25.8 | Heart-to-lung ratio ([6]; at 5 minutes post-injection): 3.3 | Heart-to-blood ratio ([6]; at 60 minutes post-injection): 20.4 | Heart-to-lung ratio ([6]; at 60 minutes post-injection): 4.6 | Blood activity clearance ([7]; monkey): fast clearance
Compound: CCCCCCCCC([18F])CCCCC1CC1CC(=O)O (stereo not drawn) [[^18F]-FCPHA, [^18F]-9-fluoro-3,4-cyclopropyl-heptadecanoic acid]
Heart activity as a function of time ([5]; pig heart, after injection): initial spike of activity corresponding to blood flow followed by a plateau after 10 minutes | Heart activity as a function of time ([7]; monkey heart, after injection (FIG. 3)): initial spike of activity corresponding to blood flow followed by a plateau after 10 minutes | Myocardial trapping visualized by PET ([7]; monkey, sixty minutes after intravenous injection of 5 mCi): myocardial trapping in both left and right ventricles

Continued, compound first:

Compound: CC(CCCCCCCCCCCCc1ccc(I)cc1)CC(=O)O (racemic) [BMIPP, 15-(p-iodophenyl)-3-(R,S)-methyl-pentadecanoic acid]
Myocardial retention [1]: 30 to 45 min

Compound: CCCCCCCCCCCCCCC(C)C[14C](=O)O (racemic) [R,S racemic mixture, 1-[^14C]-3(R,S)-methylheptadecanoic acid]
Biodistribution, Blood ([2]; 5 minutes post-injection): 0.23 ± 0.02 % DPE | Biodistribution, Heart ([2]; 5 minutes post-injection): 2.20 ± 0.95 % DPE | Biodistribution, Left Ventricle ([2]; 5 minutes post-injection): 2.87 ± 1.01 % DPE | Biodistribution, Right Ventricle ([2]; 5 minutes post-injection): 2.05 ± 0.54 % DPE | Heart-to-blood ([2]; 5 minutes post-injection): 9.56 | Left ventricle-to-blood ([2]; 5 minutes post-injection): 12.48 | Right ventricle-to-blood ([2]; 5 minutes post-injection): 8.90 | Biodistribution, Blood ([2]; 30 minutes post-injection): 0.20 ± 0.02 % DPE | Biodistribution, Heart ([2]; 30 minutes post-injection): 2.10 ± 0.41 % DPE | Biodistribution, Left Ventricle ([2]; 30 minutes post-injection): 2.81 ± 0.35 % DPE | Biodistribution, Right Ventricle ([2]; 30 minutes post-injection): 2.10 ± 0.41 % DPE | Heart-to-blood ([2]; 30 minutes post-injection): 10.10 | Left ventricle-to-blood ([2]; 30 minutes post-injection): 12.48 | Right ventricle-to-blood ([2]; 30 minutes post-injection): 10.05

Compound: CCCCCCCCCCCCCC[C@H](C)C[11C](=O)O (single isomer, unassigned; isomer 1) [S-isomer]
Biodistribution, Blood ([2]; 5 minutes post-injection): 0.18 ± 0.01 % DPE | Biodistribution, Heart ([2]; 5 minutes post-injection): 3.44 ± 0.54 % DPE | Biodistribution, Left Ventricle ([2]; 5 minutes post-injection): 4.05 ± 0.77 % DPE | Biodistribution, Right Ventricle ([2]; 5 minutes post-injection): 3.40 ± 0.82 % DPE | Heart-to-blood ([2]; 5 minutes post-injection): 19.00 | Left ventricle-to-blood ([2]; 5 minutes post-injection): 22.00 | Right ventricle-to-blood ([2]; 5 minutes post-injection): 18.88 | Biodistribution, Blood ([2]; 30 minutes post-injection): 0.21 ± 0.04 % DPE | Biodistribution, Heart ([2]; 30 minutes post-injection): 3.08 ± 0.30 % DPE | Biodistribution, Left Ventricle ([2]; 30 minutes post-injection): 3.81 ± 0.37 % DPE | Biodistribution, Right Ventricle ([2]; 30 minutes post-injection): 2.82 ± 0.46 % DPE | Heart-to-blood ([2]; 30 minutes post-injection): 14.66 | Left ventricle-to-blood ([2]; 30 minutes post-injection): 18.14 | Right ventricle-to-blood ([2]; 30 minutes post-injection): 18.88

Compound: CC(C)(CCCCCCCCCCCCc1ccc(I)cc1)CC(=O)O [DMIPP]
Myocardial clearance [1]: 6 to 7 h

Compound: O=C(O)CCCCCCCCCCCCCCc1ccc(I)cc1 [IPPA, 15-(p-iodophenyl)pentadecanoic acid]
Blood clearance t½ (elimination) ([3]; in vivo): 5 min | Myocardial clearance, fast component t½ (flow) [3, 8]: 3.5 min | Myocardial clearance, slow component t½ (metabolism) [3, 8]: 130 min
